Data on twelve compounds can be found in patent US11059795B2, “Androgen receptor modulators and methods for their use” (ESSA Pharma, Inc., priority 2018, dated 2021).

Series [1] is described as follows: Microsomal stability assay, mouse liver microsomes. Format: in vitro ADME. Conditions: for microsomal CLint at 1 μM: mouse, liver microsomes, pH 7.4, mouse liver microsomes, 1 μM compound, 0.5 mg/mL protein, 37° C., read-out: MLM +30/− NADPH: Clint (μL/min/mg protein); for half-life at 1 μM: pH 7.4, mouse liver microsomes, read-out: Liver microsome T½ (min) Mouse. In short, it runs like this:
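Compound at 1 μM was incubated at 37° C with 0.5 mg/mL liver microsomes and 1 mM NADPH and/or 1 mM UDPGA (with alamethicin) in 100 mM potassium phosphate pH 7.4, 3 mM MgCl2. Samples were taken at 0, 15, 30 and 60 min and measured by LC/MS/MS. t½ came from compound loss relative to 0 min, and Clint was scaled with 45 mg microsomal protein/g liver.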

The nature of series [2]: Hepatocyte stability assay, mouse hepatocytes. Type of series: in vitro ADME. The following applies: cryopreserved hepatocytes; for hepatocyte CLint at 1 μM: mouse, 1 μM compound, 0.5 million cells/mL, 37° C., read-out: MH +/− NADPH: Clint (μL/min/million cells); for half-life at 1 μM: read-out: Hepatocytes T½ (min) Mouse. The method, boiled down: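 Cryopreserved rat, human or mouse hepatocytes at 0.5 million cells/mL in DMEM with 1 μM compound, 37° C, sampled at 0, 60, 120 and 180 min and quenched with acetonitrile/formic acid. Parent loss vs 0-min by LC/MS/MS gave t½, and Clint = 0.693/t½ × mL incubation/million cells.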

Series [3] is described as follows: Microsomal stability assay, monkey liver microsomes. Conditions: pH 7.4, read-out: Liver microsome T½ (min) Monkey. Format: in vitro ADME. Here is the method:
(§1) Microsomal stability assay is a widely used in vitro model to characterize the metabolic conversion by phase I enzymes, such as cytochrome P450 (CYP) enzymes. Since metabolism is known to be highly variable in different species, microsomal stability assay is commonly run in multiple species. Metabolic stability of testing compound can be evaluated using human, rat, mouse, or other animal liver or intestine microsomes to predict intrinsic clearance.
(§2) The assay was carried out in 96-well microtiter plates at 37° C. Reaction mixtures (25 μL) contained a final concentration of 1 μM test compound, 0.5 mg/mL liver microsomes protein, and 1 mM NADPH and/or 1 mM UDPGA (with alamethicin) in 100 mM potassium phosphate, pH 7.4 buffer with 3 mM MgCl2. The incubation was done with N=1, but duplicate incubation at each time point can be prepared if necessary. At each of the time points (for example, 0, 15, 30, and 60 minutes), 150 μL of quench solution (100% acetonitrile with 0.1% formic acid) with internal standard was transferred to each well. Besides the zero minute controls, mixtures containing the same components except the NADPH can also be prepared as the negative control. Verapamil was included as a positive control to verify assay performance. Plates were sealed, vortexed, and centrifuged at 4° C. for 15 minutes at 4000 rpm. The supernatant is transferred to fresh plates for LC/MS/MS analysis.
(§3) Summarized conditions: [Compound]=[…], [LM]=0.5 mg/mL, [NADPH]=1 mM and/or [UDPGA]=1 mM, Buffer=100 mM Potassium Phosphate, pH 7.4 with 3 mM MgCl2, Time=0, 15, 30, and 60 min, and Temperature=37° C.
(§4) All samples were analyzed on LC/MS/MS using an AB Sciex API 4000 instrument, coupled to a Shimadzu LC-20AD LC Pump system. Analytical samples were separated using a Waters Atlantis T3 dC18 reverse phase HPLC column (20 mm×2.1 mm) at a flow rate of 0.5 mL/min. The mobile phase consisted of 0.1% formic acid in water (solvent A) and 0.1% formic acid in 100% acetonitrile (solvent B).
(§5) The extent of metabolism is calculated as the disappearance of the test compound, compared to the 0-min time incubation. Initial rates are calculated for the compound concentration and used to determine half-life (t½) values and subsequently, the intrinsic clearance (Clint). Clint=(0.693)(1/t½ (min))(g of liver/kg of body weight)(mL incubation/mg of microsomal protein)(45 mg of microsomal protein/g of liver weight)
For orientation: Liver microsomes are a subcellular fraction often used to study metabolism.

Series [4] in a line: Microsomal stability assay, dog liver microsomes. Format: in vitro ADME. Conditions: pH 7.4, read-out: Liver microsome T½ (min) Dog. Here is the method:
as §1, §2, §3, §4, §5

Series [5] deals with T1, LBD of glucocorticoid receptor (GR) fused to DBD of GAL4 (Homo sapiens, UniProt P04150).
T1 sequence (P04150 524-758 limits assumed): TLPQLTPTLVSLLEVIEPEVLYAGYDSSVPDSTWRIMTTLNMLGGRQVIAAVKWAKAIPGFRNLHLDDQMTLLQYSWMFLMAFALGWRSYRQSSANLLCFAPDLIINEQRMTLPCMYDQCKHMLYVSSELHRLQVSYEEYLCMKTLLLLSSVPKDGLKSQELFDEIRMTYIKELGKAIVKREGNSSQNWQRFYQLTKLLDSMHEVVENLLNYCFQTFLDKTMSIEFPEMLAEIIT
Kind of series: LBD-expressing reporter assay (GeneBLAzer), GR LBD. Format: cell-based. Conditions: inhibition of maximal activity attained with agonist; read-out: Steroid Receptor LBD IC50 (μM) GR. From the text:
This assay uses cells that stably express a chimera fusion protein comprising the LBD of a steroid hormone receptor fused to the DNA-binding domain (DBD) of GAL4 along with beta-lactamase reporter under transcriptional control of an upstream activator sequence (UAS). When agonist binds to the LBD of the GAL4 (DBD)-steroid hormone (LBD) chimera fusion protein, the protein binds to the UAS, resulting in expression of beta-lactamase. LBDs of androgen receptor (AR), progesterone receptor-beta (PRβ), glucocorticoid receptor (GR), estrogen receptor-α (ERα), and estrogen receptor-β (ERβ) were tested and IC50s calculated for inhibiting maximal activity attained with agonist.

Another series concerns LN-CaP95 cells. Description: Cell proliferation assay, LNCaP95 (BrdU incorporation). Format: cell-based. The following applies: LNCaP-95, read-out: Cellular Proliferation/Viability IC50 (μM) LNCaP95. On the procedure:
Cell proliferation/viability was measured in LNCaP and PC3 cells with Alamar blue, and proliferation was measured in LN-CaP95 cells with BrdU incorporation. In LNCaP cells, AR specific proliferation is calculated by measuring the difference between control cells treated with or without 0.1 nM R1881.
For orientation: Incorporation of labelled thymidine or its analogues reports DNA synthesis.

Consider `Cc1cnc(NS(C)(=O)=O)nc1COc1ccc(C(C)(C)c2cc(Cl)c(OCCCl)c(C#N)c2)cc1` [Compound A122, N-(4-((4-(2-(3-Chloro-4-(2-chloroethoxy)-5-cyanophenyl)propan-2-yl)phenoxy)methyl)-5-methylpyrimidin-2-yl)methanesulfonamide], for which, in series [1], the microsomal CLint at 1 μM lay within 12 to 48 µL/min/mg. Besides, the hepatocyte CLint at 1 μM in series [2] lay within 4 to 18 µL/min/1e6 cells.

Take `CC(C)(c1ccc(OCc2ocnc2S(C)(=O)=O)cc1)c1cc(Cl)c(OCCCl)c(C#N)c1` [Compound A28, 3-chloro-2-(2-chloroethoxy)-5-(2-(4-((4-(methylsulfonyl)oxazol-5-yl)methoxy)phenyl)propan-2-yl)benzonitrile]: the half-life at 1 μM was 73 min in series [3], 74 min in series [1], 86 min in series [2] and above 120 min in series [4]. The microsomal CLint at 1 μM in series [1] lay within 12 to 48 µL/min/mg. Moreover, in series [2], the hepatocyte CLint at 1 μM was 4 to 18 µL/min/1e6 cells. The results for the IC50 (in series [5]; in the series with LN-CaP95 cells) were above 10 µM and 6.43 µM, respectively.

`CC(C)(c1ccc(OCc2coc(NS(C)(=O)=O)n2)cc1)c1cc(Cl)c(OCCCl)c(Cl)c1` [Compound A38, N-(4-((4-(2-(3,5-dichloro-4-(2-chloroethoxy)phenyl)propan-2-yl)phenoxy)methyl)oxazol-2-yl)methanesulfonamide]: the half-life at 1 μM in series [3] is above 120 min; in series [1] it was above 120 min; in series [2] it was above 360 min; in series [4], above 120 min. For the same compound, the microsomal CLint at 1 μM in series [1] is below 12 µL/min/mg. In series [2], the hepatocyte CLint at 1 μM is below 4 µL/min/1e6 cells. Besides, in series [5], the IC50 is above 10 µM.

For `CC(C)(c1ccc(OCc2nc(S(C)(=O)=O)cs2)cc1)c1cc(Cl)c(OCCCl)c(C#N)c1` [Compound A136, 3-Chloro-2-(2-chloroethoxy)-5-(2-(4-((4-(methylsulfonyl)thiazol-2-yl)methoxy)phenyl)propan-2-yl)benzonitrile], the microsomal CLint at 1 μM in series [1] lay in the range of 12 to 48 µL/min/mg. Besides, the hepatocyte CLint at 1 μM in series [2] was in the range of 4 to 18 µL/min/1e6 cells.

Turning to `C[C@H](Oc1ccc(C(C)(C)c2cc(Cl)c(OCCCl)c(C#N)c2)cc1)c1ccnc(NS(C)(=O)=O)n1` (single isomer, unassigned) [Compound A170], the microsomal CLint at 1 μM in series [1] is below 12 µL/min/mg. In series [2], the hepatocyte CLint at 1 μM is below 4 µL/min/1e6 cells.

`CC(C)(c1ccc(OCc2ccnc(NS(C)(=O)=O)n2)cc1)c1cc(Cl)c(OCCCl)c(Cl)c1` [Compound A74, N-(4-((4-(2-(3,5-dichloro-4-(2-chloroethoxy)phenyl)propan-2-yl)phenoxy)methyl)pyrimidin-2-yl)methanesulfonamide]: the half-life at 1 μM in series [3], in series [1] and in series [4] was above 120 min throughout. Besides, the microsomal CLint at 1 μM in series [1] was below 12 µL/min/mg. Further, the values for the IC50 (in series [5]; in the series on LN-CaP95 cells) were 9.51 µM and 2.65 µM, respectively.

Take `CCS(=O)(=O)Nc1nccc(COc2ccc(C(C)(C)c3cc(Cl)c(OCCCl)c(C#N)c3)cc2)n1` [Compound A131]: in series [1], the microsomal CLint at 1 μM is below 12 µL/min/mg. The hepatocyte CLint at 1 μM in series [2] was below 4 µL/min/1e6 cells.

In the case of `CC(C)(c1ccc(OCc2ncc(S(C)(=O)=O)s2)cc1)c1cc(Cl)c(OCCCl)c(C#N)c1` [Compound A93, 3-chloro-2-(2-chloroethoxy)-5-(2-(4-((5-(methylsulfonyl)thiazol-2-yl)methoxy)phenyl)propan-2-yl)benzonitrile], the half-life at 1 μM is 101 min in series [3], above 120 min in series [1], above 360 min in series [2] and above 120 min in series [4]. Moreover, the microsomal CLint at 1 μM in series [1] is below 12 µL/min/mg. Also, in series [2], the hepatocyte CLint at 1 μM was below 4 µL/min/1e6 cells. Further, in series [5], the IC50 was above 10 µM.

Take `CC(C)(c1ccc(OC[C@H](O)CNS(C)(=O)=O)cc1)c1cc(Cl)c(OC[C@H](O)CCl)c(Cl)c1` [X, reference compound]: the half-life at 1 μM in series [2] was determined as 33 min. Besides, the results for the IC50 (in series [5]; in the series with LN-CaP95 cells) were above 10 µM and 4 µM, respectively.

As to `CCS(=O)(=O)Nc1nc(COc2ccc(C(C)(C)c3cc(Cl)c(OCCCl)c(C#N)c3)cc2)co1` [Compound A126], the microsomal CLint at 1 μM in series [1] was below 12 µL/min/mg. Further, the hepatocyte CLint at 1 μM in series [2] is below 4 µL/min/1e6 cells.

`CC(C)(c1ccc(OCc2ccnc(NS(C)(=O)=O)n2)cc1)c1cc(Cl)c(OCCCl)c(C#N)c1` [Compound A109, N-(4-((4-(2-(3-chloro-4-(2-chloroethoxy)-5-cyanophenyl)propan-2-yl)phenoxy)methyl)pyrimidin-2-yl)methanesulfonamide]: the half-life at 1 μM in series [3] is above 120 min; in series [1] it was above 120 min; in series [2], above 360 min; in series [4], above 120 min. Moreover, the microsomal CLint at 1 μM in series [1] is below 12 µL/min/mg. Also, the hepatocyte CLint at 1 μM in series [2] is below 4 µL/min/1e6 cells. Further, the IC50 is above 10 µM in series [5] and 3.78 µM in the series on LN-CaP95 cells.

Take `CC(C)(c1ccc(OCc2ocnc2S(C)(=O)=O)cc1)c1cc(Cl)c(OCCCl)c(Cl)c1` [Compound A13, 5-((4-(2-(3,5-dichloro-4-(2-chloroethoxy)phenyl)propan-2-yl)phenoxy)methyl)-4-(methylsulfonyl)oxazole]: the half-life at 1 μM in series [3] is above 120 min; in series [1], above 120 min; in series [2] it was 203 min; in series [4], above 120 min. Also, the microsomal CLint at 1 μM in series [1] was below 12 µL/min/mg. Moreover, the hepatocyte CLint at 1 μM in series [2] lay within 4 to 18 µL/min/1e6 cells. The IC50 was above 10 µM in series [5] and 4 µM with LN-CaP95 cells.
